Data reported in US20160213742A1, “COMPOSITIONS AND METHODS FOR THE TREATMENT OF FUNGAL INFECTIONS” (priority 2013, published 2016).
In brackets after ≈: the same amount, converted by molar mass.

How the values were obtained:
Assay type in all cases: cell-based
C. albicans ATCC 90028 = assay: microbe, parasite or virus in culture
In short: (§1)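 Broth microdilution in CLSI-prepared RPMI, pH 7.0, with serial 2-fold drug dilutions; final DMSO 1.25% for investigational agents. Candida inoculum from 0.5 McFarland diluted 1:100; Aspergillus at ~0.2-2.5×10^4 CFU/mL. Incubated 35° C. ~24-48 hr; MIC at visible growth inhibition, MEC at compact rounded hyphal form.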

C. glabrata ATCC 90030 = assay: microbe, parasite or virus in culture
In short: as §1

C. krusei ATCC 14243 = assay: microbe, parasite or virus in culture
In short: as §1

[1] = test system: C. parapsilosis ATCC 22019; assay: microbe, parasite or virus in culture
In short: as §1

A. flavus MX 5948 = assay: MEC assay (Example 31); details: RPMI pH 7.0, 35° C., 24-48 hr
In short: as §1

A. fumigatus ATCC 13073 = assay: MEC assay (Example 31); details: RPMI pH 7.0, 35° C., 24-48 hr
In short: as §1

A. fumigatus MX 5944 = assay: MEC assay (Example 31); details: RPMI pH 7.0, 35° C., 24-48 hr
In short: as §1

A. fumigatus MYA-3626 = assay: MEC assay (Example 31); details: RPMI pH 7.0, 35° C., 24-48 hr
In short: as §1

A. fumigatus MYA-4609 = assay: MEC assay (Example 31); details: RPMI pH 7.0, 35° C., 24-48 hr
In short: as §1

[2] = test system: Neutrophils purified from human peripheral blood; assay: Human Neutrophil Transwell Migration Assay; details: 37° C., 45 minutes, % of the maximum migration possible
In short: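 Neutrophils (~50,000–100,000) were placed above 5-micron transwell inserts with test compound in the lower chamber and allowed to migrate 45 min at 37° C. Migrated cells were quantified by ATP luminescence; medium-only background was subtracted and values expressed as % of cells added directly to the bottom well.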

| Compound | MIC (C. albicans ATCC 90028; ATCC 90028, pH 7) [µg/mL] | MIC (C. glabrata ATCC 90030; ATCC 90030, pH 7) [µg/mL] | MIC (C. krusei ATCC 14243; ATCC 14243, pH 7) [µg/mL] | MIC ([1]; ATCC 22019, pH 7) [µg/mL] | MEC (A. flavus MX 5948) | MEC (A. fumigatus ATCC 13073) | MEC (A. fumigatus MX 5944) [µg/mL] | MEC (A. fumigatus MYA-3626) | MEC (A. fumigatus MYA-4609) | % Neutrophil Migration ([2]; conc 0.001 μg/mL) [%] | % Neutrophil Migration ([2]; conc 0.01 μg/mL) [%] | % Neutrophil Migration ([2]; conc 0.1 μg/mL) [%] | % Neutrophil Migration ([2]; conc 1 μg/mL) [%] | % Neutrophil Migration ([2]; conc 10 μg/mL) [%] | MIC (C. albicans ATCC 90028; C. albicans ATCC 90028, RPMI pH 7.0, 35° C., 24-48 hr) [µg/mL] | MIC (C. glabrata ATCC 90030; C. glabrata ATCC 90030, RPMI pH 7.0, 35° C., 24-48 hr) [µg/mL] | MIC (C. krusei ATCC 14243; C. krusei ATCC 14243, RPMI pH 7.0, 35° C., 24-48 hr) [µg/mL] | MIC ([1]; C. parapsilosis ATCC 22019, RPMI pH 7.0, 35° C., 24-48 hr) [µg/mL] |
| --- | --- | --- | --- | --- | --- | --- | --- | --- | --- | --- | --- | --- | --- | --- | --- | --- | --- | --- |
| CC[C@H](C)C[C@H](C)CCCCCCCCC(=O)N[C@H]1C[C@@H](O)[C@@H](NCCN)NC(=O)[C@@H]2[C@@H](O)CCN2C(=O)[C@H]([C@H](O)CCNC(=O)[C@H](Cc2ccccc2)NC(=O)[C@H](CC(C)C)NC(=O)[C@H](CCSC)NC=O)NC(=O)[C@H]([C@H](O)[C@@H](O)c2ccc(O)cc2)NC(=O)[C@@H]2C[C@@H](O)CN2C(=O)[C@H]([C@@H](C)O)NC1=O [Compound 1] | 2 (≈ 1.32 µM) | 4 (≈ 2.64 µM) | 8 (≈ 5.29 µM) | 16 (≈ 10.6 µM) | 0.12 to 1 µg/mL | 0.12 to 2 µg/mL | 0.12 to 0.5 | 0.25 to 0.5 µg/mL | 0.12 to 1 µg/mL | −4.7 | 67.9 | 70.7 | −10.6 | −11.2 | – | – | – | – |
| caspofungin acetate [reference compound] | – | – | – | – | ≦0.015-0.06 μg/mL | ≦0.03-0.06 μg/mL | 0.03 to 0.12 | ≦0.03-0.12 μg/mL | ≦0.03-1^ μg/mL | – | – | – | – | – | 0.03 to 0.12 | 0.06 to 0.25 | 0.5 to 1 | 0.5 to 1 |
| CC[C@H](C)C[C@H](C)CCCCCCCCC(=O)N[C@H]1C[C@@H](O)[C@@H](OCCN)NC(=O)[C@@H]2[C@@H](O)CCN2C(=O)[C@H]([C@H](O)CCNC(=O)[C@H](Cc2ccccc2)NC(=O)[C@H](CC(C)C)NC(=O)[C@H](CCSC)NC=O)NC(=O)[C@H]([C@H](O)[C@@H](O)c2ccc(O)cc2)NC(=O)[C@@H]2C[C@@H](O)CN2C(=O)[C@H]([C@@H](C)O)NC1=O [Compound 11] | 2 (≈ 1.32 µM) | 8 (≈ 5.28 µM) | 16 (≈ 10.6 µM) | 32 (≈ 21.1 µM) | 0.06 µg/mL | ≦0.06-0.06 μg/mL | 0.12 | 0.06 to 0.12 µg/mL | 0.06 µg/mL | −4.7 | 80.3 | 28.3 | −8.0 | −10.9 | – | – | – | – |
